Experimental data from US10420787B2, “Crystal-water-free calcium dibutyryladenosine cyclophosphate crystal form and preparation method and application thereof” (SPH NO.1 BIOCHEMICAL & PHARMACEUTICAL CO., LTD., priority 2014, dated 2019).
Where “and” joins values, the source holds several entries; their conditions need not be identical. Equal entries are not always repeated.

Experiments:
[1] = Long-term observation stability test (16° C., relative humidity 60±5%, 12 months); assay type: physicochemical; settings: RH 60±5%; for Related substances (%): HPLC
Text: (§1) Chromatographic conditions include:
(§2) HPLC purity is detected according to the method in the following embodiments.

[2] = Hygrothermal acceleration stability test (30° C., relative humidity 75±5%, 6 months); assay type: physicochemical; settings: RH 75±5%; for Related substances (%): HPLC
Text: as §1, §2

Row | Compound | Content (%) ([1]; 0 months) | Related substances (%) ([1]; 0 months) | Content (%) ([1]; 3 months) | Related substances (%) ([1]; 3 months) | Related substances (%) ([1]; 6 months) | Content (%) ([1]; 9 months) | Related substances (%) ([1]; 9 months) | Content (%) ([1]; 12 months) | Related substances (%) ([1]; 12 months) | Related substances (%) ([2]; 0 months) | Content (%) ([2]; 1 month) | Related substances (%) ([2]; 1 month) | Content (%) ([2]; 2 months) | Related substances (%) ([2]; 2 months) | Content (%) ([2]; 3 months) | Related substances (%) ([2]; 3 months) | Content (%) ([2]; 6 months) | Related substances (%) ([2]; 6 months) | Content (%) ([1]; 6 months) | Content (%) ([2]; 0 months)
1 | CCCC(=O)Nc1ncnc2c1ncn2[C@@H]1O[C@@H]2COP(=O)([O-])O[C@H]2[C@H]1OC(=O)CCC.CCCC(=O)Nc1ncnc2c1ncn2[C@@H]1O[C@@H]2COP(=O)([O-])O[C@H]2[C@H]1OC(=O)CCC.[Ca+2] [Anhydrouscalcium dibutyryladenosine cyclophosphate solids] [anhydrous calcium dibutyryladenosine cyclophosphate, reference compound] | 954% | 4.3% | 95.0% | 4.6% | 4.8% | 94.4% | 5.2% | 94.1% | 5.4% | 4.3% | 94.8% | 4.9% | 94.2% | 5.5% | 93.5% | 6.0% | 93.0% | 6.7% |  | 
2 | CCCC(=O)Nc1ncnc2c1ncn2[C@@H]1O[C@@H]2COP(=O)([O-])O[C@H]2[C@H]1OC(=O)CCC.CCCC(=O)Nc1ncnc2c1ncn2[C@@H]1O[C@@H]2COP(=O)([O-])O[C@H]2[C@H]1OC(=O)CCC.[Ca+2] [calcium dibutyryladenosine cyclophosphate] | 95.8% and 96.2% and 95.2% | 3.8% and 4.1% and 4.0% | 95.5% and 96.1% and 95.3% | 3.7% and 4.2% and 4.1% | 3.8% and 4.1% and 4.3% | 95.5% and 95.9% and 95.0% | 3.7% and 4.0% and 4.2% | 95.3% and 95.8% and 94.9% | 4.0% and 4.3% and 4.4% | 3.8% and 4.1% and 4.0% | 95.3% and 95.8% and 95.0% | 3.9% and 4.0% and 4.1% | 95.1% and 95.4% | 4.0% and 4.1% | 94.9% and 95.0% and 94.7% | 4.2% and 4.3% | 94.5% and 94.7% and 94.3% | 4.5% and 4.7% and 4.6% | 95.6% and 96.0% and 95.1% | 95.8% and 96.2% and 95.2%
3 | calcium dibutyryladenosine cyclophosphate 2.3 hydrates [DBC-Ca•2.3H2O crystals, reference compound] | 90.2% | 5.3% | 90.0% | 5.3% | 5.5% | 89.7% | 5.6% | 89.6% | 5.9% | 5.3% | 90.1% | 5.5% | 89.8% | 5.8% | 89.7% | 5.9% | 89.3% | 6.1% | 89.9% | 90.2%
